Results as given in patent US11821001B2, “Cell culture medium for eukaryotic cells” (Regeneron Pharmaceuticals, Inc., priority 2019, dated 2023).

Tested on: titer of VEGFR binding protein 1
Experiment: Correlation and regression of component concentration against protein titer of VEGFR binding protein 1
Type: cell-based
Conditions: regression line; for protein titer versus concentration of the component in the cell culture medium: N=70, extrapolated estimation from soy hydrolysate data, FIG. 3 / FIG. 5; for protein titer versus concentration of the component in the soy hydrolysate added to the cell culture medium: N=70, enriched medium (soy hydrolysate), FIG. 2 / FIG. 4
Procedure: The impact of 5-methythioadenosine on production of a recombinant protein (VEGFR binding protein 1) was studied by investigating the protein titer (g/L) at different concentrations of 5-methythioadenosine present in the cell culture medium.
An enriched medium (soy hydrolysate) comprising 5-methythioadenosine was added to the cell culture medium.
Based on the correlation data obtained from studying the effect of 5-methythioadenosine concentrations in the enriched medium (soy hydrolysate) supplemented to the cell culture medium (Example 2, FIG. 2), an estimation as to the optimum concentration of 5-MTA in a cell culture was made.
The impact of nicotinamide on a recombinant protein (VEGFR binding protein 1) titer was also studied by investigating the protein titer (g/L) at different concentrations of nicotinamide present in the cell culture medium.
An enriched medium (soy hydrolysate) comprising nicotinamide was added to the cell culture medium at varying concentrations.
Based on the correlation data obtained from studying the effect of nicotinamide concentration in enriched medium (soy hydrolysate) supplemented to the cell culture medium (Example 4, FIG. 4), an estimation as to the optimum concentration of nicotinamide in a cell culture was made.

SMILES | protein titer versus concentration of the component in the cell culture medium | protein titer versus concentration of the component in the soy hydrolysate added to the cell culture medium
NC(=O)c1cccnc1 [Nicotinamide, 3-Pyridinecarboxamide] | titer can vary linearly | titer varied linearly
CSC[C@H]1O[C@@H](n2cnc3c(N)ncnc32)[C@H](O)[C@@H]1O [5-methylthioadenosine (MTA), 5-Deoxy-5′-methylthioadenosine] | titer can vary linearly | titer varied linearly
